target: T1, recombinant glucosyltransferase domain of C. difficile Toxin B/TcdB (Clostridioides difficile, UniProt P18177); test: biochemical
T1 construct: 6-His (C); purchased R&D Systems 6246-GT
T1 sequence (P18177 1-543): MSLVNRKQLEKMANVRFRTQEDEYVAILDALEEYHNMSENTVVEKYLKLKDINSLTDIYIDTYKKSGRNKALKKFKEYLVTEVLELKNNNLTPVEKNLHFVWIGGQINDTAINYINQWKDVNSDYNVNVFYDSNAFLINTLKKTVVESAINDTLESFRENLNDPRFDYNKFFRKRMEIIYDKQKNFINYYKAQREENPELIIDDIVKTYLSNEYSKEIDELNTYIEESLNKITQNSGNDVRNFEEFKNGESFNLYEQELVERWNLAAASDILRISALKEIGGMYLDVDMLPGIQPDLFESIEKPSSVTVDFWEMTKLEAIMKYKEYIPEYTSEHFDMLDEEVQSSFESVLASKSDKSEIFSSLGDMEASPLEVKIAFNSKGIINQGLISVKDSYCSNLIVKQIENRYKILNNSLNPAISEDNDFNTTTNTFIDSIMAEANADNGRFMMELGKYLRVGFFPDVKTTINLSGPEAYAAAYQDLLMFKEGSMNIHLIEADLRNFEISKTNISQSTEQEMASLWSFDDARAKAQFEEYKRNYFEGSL

Compared with `O=C1Nc2cc(Cl)ccc2C(=O)N(Cc2ccc(C(=O)N3CCc4cccnc43)c(F)c2)[C@@H]1Cc1ccccn1` [Example 6e, (R)-8-chloro-4-(4-(2,3-dihydro-1H-pyrrolo[2,3-b]pyridine-1-carbonyl)-3-fluorobenzyl)-3-(pyridin-2-ylmethyl)-3,4-dihydro-1H-benzo[e][1,4]diazepine-2,5-dione], `O=C1Nc2cc(Cl)ccc2C(=O)N(Cc2ccc(C(=O)N3CCCc4cccnc43)cc2)[C@@H]1Cc1ccccn1` [Example 4ag, (R)-8-chloro-3-(pyridin-2-ylmethyl)-4-(4-(1,2,3,4-tetrahydro-1,8-naphthyridine-1-carbonyl)benzyl)-3,4-dihydro-1H-benzo[e][1,4]diazepine-2,5-dione] is higher in IC50: 0.1 to 0.999 µM for the first, 1 to 10 µM for the second. The first is the more potent here.

`COCC(=O)Nc1cc(CN2C(=O)c3ccc(Cl)cc3NC(=O)[C@H]2Cc2ccccn2)ccc1C(=O)O` [Example 22b] and `CN1CCC(CC(=O)Nc2cc(CN3C(=O)c4ccc(Cl)cc4NC(=O)[C@H]3Cc3ccccn3)ccc2C(=O)O)CC1` [Example 22l] fall in the same range of IC50: 0.1 to 0.999 µM for the first, 0.1 to 0.999 µM for the second.

`O=C(O)c1ccc(CN2C(=O)c3ccc(Cl)cc3NC(=O)[C@H]2Cc2ccccn2)cc1-c1ccc(Cl)cc1` [Example 8i, (R)-4′-chloro-5-((8-chloro-2,5-dioxo-3-(pyridin-2-ylmethyl)-2,3-dihydro-1H-benzo[e][1,4]diazepin-4(5H)-yl)methyl)-[1,1′-biphenyl]-2-carboxylic acid] and `O=C(O)c1ccc(CN2C(=O)c3ccc(Cl)cc3NC(=O)[C@H]2Cc2ccccn2)cc1-c1ccc(F)cc1` [Example 8d, (R)-5-((8-chloro-2,5-dioxo-3-(pyridin-2-ylmethyl)-2,3-dihydro-1H-benzo[e][1,4]diazepin-4(5H)-yl)methyl)-4′-fluoro-[1,1′-biphenyl]-2-carboxylic acid] fall in the same range of IC50: 0.1 to 0.999 µM for the first, 0.1 to 0.999 µM for the second.

First: O=C(Nc1ccccn1)c1ccc(C(=O)N2Cc3ccc(Cl)cc3NC(=O)[C@H]2Cc2ccccn2)cc1 [Example 19i, (R)-4-(8-chloro-2-oxo-3-(pyridin-2-ylmethyl)-2,3,4,5-tetrahydro-1H-benzo[e][1,4]diazepine-4-carbonyl)-N-(pyridin-2-yl)benzamide]
Second: O=C(Nc1ccccn1)c1ccc(CN2C(=O)c3ccc(Cl)cc3NC(=O)[C@@H]2Cc2ccccn2)cc1 [Example 4aq, (S)-4-((8-chloro-2,5-dioxo-3-(pyridin-2-ylmethyl)-2,3-dihydro-1H-benzo[e][1,4]diazepin-4(5H)-yl)methyl)-N-(pyridin-2-yl)benzamide]
The IC50 of the first is higher: 1 to 10 µM for the first, under 0.1 µM for the second.

First: Cc1ccccc1C[C@@H]1C(=O)Nc2cc(Cl)ccc2C(=O)N1Cc1ccc(C(=O)O)cc1 [Example 3l]
Second: Cc1ccc(C[C@@H]2C(=O)Nc3cc(Cl)ccc3C(=O)N2Cc2ccc(C(=O)O)cc2)cc1 [Example 3h]
The IC50 of the first is lower: 1 to 10 µM for the first, 10 to 35 µM for the second. The first is the more potent here.

`NC(=O)c1ccc(CN2C(=O)c3ccc(Cl)cc3NC(=O)[C@H]2Cc2ccccn2)cc1` [Example 13d] and `O=C(Nc1ccc(CN2C(=O)c3ccc(Cl)cc3NC(=O)[C@H]2Cc2ccccn2)cc1)c1cnccn1` [Example 27d] fall in the same range of IC50: 0.1 to 0.999 µM for the first, 0.1 to 0.999 µM for the second.

`Cc1noc(C)c1-c1cc(CN2C(=O)c3ccc(Cl)cc3NC(=O)[C@H]2Cc2ccccn2)ccc1C(=O)O` [Example 8t, 4-(((R)-8-chloro-2,5-dioxo-3-(pyridin-2-ylmethyl)-2,3-dihydro-1H-benzo[e][1,4]diazepin-4(5H)-yl)methyl)-2-(3,5-dimethylisoxazol-4-yl)benzoic acid] and `Cn1nccc1-c1cc(CN2C(=O)c3ccc(Cl)cc3NC(=O)[C@H]2Cc2ccccn2)ccc1C(=O)O` [Example 8s, (R)-4-((8-chloro-2,5-dioxo-3-(pyridin-2-ylmethyl)-2,3-dihydro-1H-benzo[e][1,4]diazepin-4(5H)-yl)methyl)-2-(1-methyl-1H-pyrazol-5-yl)benzoic acid] fall in the same range of IC50: 1 to 10 µM for the first, 1 to 10 µM for the second.

First: COc1ccc(COc2cc(CN3C(=O)c4ccc(Cl)cc4NC(=O)[C@H]3C)ccc2C(=O)O)cc1 [Example 38a, (R)-2-(4-Methoxybenzyloxy)-4-((8-chloro-3-methyl-2,5-dioxo-2,3-dihydro-1H-benzo[e][1,4]diazepin-4(5H)-yl)methyl)benzoic Acid]
Second: COc1ccc2c(c1)NC(=O)[C@@H](Cc1ccc(Cl)c(Cl)c1)N(Cc1ccc(C(=O)O)cc1)C2=O [Example 2f]
The IC50 of the first is higher: 10 to 35 µM for the first, 1 to 10 µM for the second. The second is the more potent here.

First: Cc1cc(CN2C(=O)c3ccc(Cl)cc3NC(=O)[C@H]2Cc2ccccn2)cc(C)c1N [Example 24a, (R)-4-(4-Amino-3,5-dimethylbenzyl)-8-chloro-3-(pyridin-2-ylmethyl)-3,4-dihydro-1H-benzo[e][1,4]diazepine-2,5-dione]
Second: Cc1cc(CN2C(=O)c3ccc(Cl)cc3NC(=O)[C@H]2Cc2ccccn2)ccc1C(=O)Nc1ccc(F)cn1 [Example 5ap, (R)-4-((8-chloro-2,5-dioxo-3-(pyridin-2-ylmethyl)-2,3-dihydro-1H-benzo[e][1,4]diazepin-4(5H)-yl)methyl)-N-(5-fluoropyridin-2-yl)-2-methylbenzamide]
The IC50 of the first is higher: 10 to 35 µM for the first, under 0.1 µM for the second.

`Cc1cnc(NC(=O)c2ccc(CN3C(=O)c4ccc(Cl)cc4NC(=O)[C@H]3Cc3cccnc3)cc2)nc1` [Example 5h, (R)-4-((8-chloro-2,5-dioxo-3-(pyridin-3-ylmethyl)-2,3-dihydro-1H-benzo[e][1,4]diazepin-4(5H)-yl)methyl)-N-(5-methylpyrimidin-2-yl)benzamide] and `Cc1cnc(NC(=O)c2ccc(CN3C(=O)c4ccc(Cl)cc4NC(=O)[C@H]3Cc3cnccn3)cc2)nc1` [Example 5z, 4-((8-chloro-2,5-dioxo-3-(pyrazin-2-ylmethyl)-2,3-dihydro-1H-benzo[e][1,4]diazepin-4(5H)-yl)methyl)-N-(5-methylpyrimidin-2-yl)benzamide] cannot be ordered by IC50: under 0.1 µM for the first, under 0.1 µM for the second.

First: Cn1ccc(NC(=O)c2ccc(CN3C(=O)c4ccc(Cl)cc4NC(=O)[C@H]3Cc3cccnc3)cc2)n1 [Example 4d, (R)-4-((8-chloro-2,5-dioxo-3-(pyridin-3-ylmethyl)-2,3-dihydro-1H-benzo[e][1,4]diazepin-4(5H)-yl)methyl)-N-(1-methyl-1H-pyrazol-3-yl)benzamide]
Second: Cc1cc(NC(=O)c2ccc(CN3C(=O)c4ccc(Cl)cc4NC(=O)[C@H]3Cc3cccnc3)cc2)no1 [Example 4e, (R)-4-((8-chloro-2,5-dioxo-3-(pyridin-3-ylmethyl)-2,3-dihydro-1H-benzo[e][1,4]diazepin-4(5H)-yl)methyl)-N-(5-methylisoxazol-3-yl)benzamide]
The IC50 of the first is higher: 0.1 to 0.999 µM for the first, under 0.1 µM for the second. The second is the more potent here.

`Cc1cc(CN2C(=O)c3ccc(Cl)cc3NC(=O)[C@H]2Cc2ccccn2)ccc1C(=O)Nc1ccc(C#N)cn1` [Example 5at, (R)-4-((8-chloro-2,5-dioxo-3-(pyridin-2-ylmethyl)-2,3-dihydro-1H-benzo[e][1,4]diazepin-4(5H)-yl)methyl)-N-(5-cyanopyridin-2-yl)-2-methylbenzamide] and `O=C(Nc1ccccn1)c1ccc(CN2C(=O)c3ccc(Cl)cc3NC(=O)[C@H]2Cc2ccccn2)cc1Cl` [Example 4cj, (R)-2-chloro-4-((8-chloro-2,5-dioxo-3-(pyridin-2-ylmethyl)-2,3-dihydro-1H-benzo[e][1,4]diazepin-4(5H)-yl)methyl)-N-(pyridin-2-yl)benzamide] cannot be ordered by IC50: under 0.1 µM for the first, under 0.1 µM for the second.

First: CC(C)c1ccc(NC(=O)c2ccc(CN3C(=O)c4ccc(Cl)cc4NC(=O)[C@H]3C)cc2)nc1 [Example 4az, (R)-4-((8-chloro-3-methyl-2,5-dioxo-2,3-dihydro-1H-benzo[e][1,4]diazepin-4(5H)-yl)methyl)-N-(5-isopropylpyridin-2-yl)benzamide]
Second: Cc1ccnc(NC(=O)c2ccc(CN3C(=O)c4ccc(Cl)cc4NC(=O)[C@H]3Cc3cccnc3)cc2)n1 [Example 5i, (R)-4-((8-chloro-2,5-dioxo-3-(pyridin-3-ylmethyl)-2,3-dihydro-1H-benzo[e][1,4]diazepin-4(5H)-yl)methyl)-N-(4-methylpyrimidin-2-yl)benzamide]
The IC50 of the first is higher: 0.1 to 0.999 µM for the first, under 0.1 µM for the second. The second is the more potent here.

`N#Cc1cccc(C[C@@H]2C(=O)Nc3cc(Cl)ccc3C(=O)N2Cc2ccc(C(=O)O)cc2)c1` [Example 3n] and `O=C(O)c1ccc(CN2C(=O)c3ccc(F)cc3NC(=O)[C@H]2Cc2ccc(Cl)c(Cl)c2)cc1` [Example 2g] fall in the same range of IC50: 1 to 10 µM for the first, 1 to 10 µM for the second.

First: Cn1cnc(C(=O)[C@H]2CC[C@H](CN3C(=O)c4ccc(Cl)cc4NC(=O)[C@H]3Cc3ccccn3)CC2)c1 [Example 33d]
Second: CC1(C)CN(C(=O)c2ccc(CN3C(=O)c4ccc(Cl)cc4NC(=O)[C@H]3Cc3ccccn3)cc2Cl)c2ncccc21 [Example 4as, (R)-8-chloro-4-(3-chloro-4-(3,3-dimethyl-2,3-dihydro-1H-pyrrolo[2,3-b]pyridine-1-carbonyl)benzyl)-3-(pyridin-2-ylmethyl)-3,4-dihydro-1H-benzo[e][1,4]diazepine-2,5-dione]
The IC50 of the first is higher: 0.1 to 0.999 µM for the first, under 0.1 µM for the second. The second is the more potent here.

First: O=C(Nc1ccccn1)c1ccc(CN2C(=O)c3ccc(Cl)cc3NC(=O)[C@H]2CCc2ccccc2)cc1 [Example 4g, (R)-4-((8-chloro-2,5-dioxo-3-phenethyl-2,3-dihydro-1H-benzo[e][1,4]diazepin-4(5H)-yl)methyl)-N-(pyridin-2-yl)benzamide]
Second: COc1ccc2c(c1)NC(=O)[C@@H](Cc1ccc(Cl)c(Cl)c1)N(Cc1ccc(C(=O)Nc3ccccn3)cc1)C2=O [Example 4l, (R)-4-((3-(3,4-dichlorobenzyl)-8-methoxy-2,5-dioxo-2,3-dihydro-1H-benzo[e][1,4]diazepin-4(5H)-yl)methyl)-N-(pyridin-2-yl)benzamide]
The IC50 of the first is higher: 1 to 10 µM for the first, under 0.1 µM for the second. The second is the more potent here.

First: O=C(O)c1ccc(CN2C(=O)c3ccc(Cl)cc3NC(=O)[C@H]2Cc2ccccn2)cc1-c1ccc(F)c(Cl)c1 [Example 8l, (R)-3′-chloro-5-((8-chloro-2,5-dioxo-3-(pyridin-2-ylmethyl)-2,3-dihydro-1H-benzo[e][1,4]diazepin-4(5H)-yl)methyl)-4′-fluoro-[1,1′-biphenyl]-2-carboxylic acid]
Second: O=C(O)c1ccc(CN2C(=O)c3ccc([N+](=O)[O-])cc3NC(=O)[C@H]2Cc2ccc(Cl)c(Cl)c2)cc1 [Example 2h]
The IC50 of the first is lower: 0.1 to 0.999 µM for the first, 1 to 10 µM for the second. The first is the more potent here.

With `COc1ccc(S(=O)(=O)NC(=O)c2ccc(CN3C(=O)c4ccc(Cl)cc4NC(=O)[C@H]3Cc3cccnc3)cc2)cc1` [Example 15d, (R)-4-((8-chloro-2,5-dioxo-3-(pyridin-3-ylmethyl)-2,3-dihydro-1H-benzo[e][1,4]diazepin-4(5H)-yl)methyl)-N-((4-methoxyphenyl)sulfonyl)benzamide] the IC50 was 1 to 10 µM.

— patent US10669242B2 (priority 2016, dated 2020)
